This note sets out measurements from US12421232B2, “Kinase inhibitor compounds and compositions and methods of use” (ICAHN SCHOOL OF MEDICINE AT MOUNT SINAI, priority 2018, dated 2025).

Where two headings read alike, the source gives them in different places.

Assay in all cases: KINOMEscan Assay (DiscoverX)
What all share (assay type): binding
Settings in all cases: read-out: % DMSO Ctrl

One assay deals with T1, PIK4CB (Homo sapiens, UniProt Q9UBF8).
T1 construct: purchased DiscoverX

A further assay concerns the target T2, FLT3(D835V) (Homo sapiens, UniProt P36888, D835V).
T2 construct: purchased DiscoverX
T2 sequence (P36888 27-993 D835V): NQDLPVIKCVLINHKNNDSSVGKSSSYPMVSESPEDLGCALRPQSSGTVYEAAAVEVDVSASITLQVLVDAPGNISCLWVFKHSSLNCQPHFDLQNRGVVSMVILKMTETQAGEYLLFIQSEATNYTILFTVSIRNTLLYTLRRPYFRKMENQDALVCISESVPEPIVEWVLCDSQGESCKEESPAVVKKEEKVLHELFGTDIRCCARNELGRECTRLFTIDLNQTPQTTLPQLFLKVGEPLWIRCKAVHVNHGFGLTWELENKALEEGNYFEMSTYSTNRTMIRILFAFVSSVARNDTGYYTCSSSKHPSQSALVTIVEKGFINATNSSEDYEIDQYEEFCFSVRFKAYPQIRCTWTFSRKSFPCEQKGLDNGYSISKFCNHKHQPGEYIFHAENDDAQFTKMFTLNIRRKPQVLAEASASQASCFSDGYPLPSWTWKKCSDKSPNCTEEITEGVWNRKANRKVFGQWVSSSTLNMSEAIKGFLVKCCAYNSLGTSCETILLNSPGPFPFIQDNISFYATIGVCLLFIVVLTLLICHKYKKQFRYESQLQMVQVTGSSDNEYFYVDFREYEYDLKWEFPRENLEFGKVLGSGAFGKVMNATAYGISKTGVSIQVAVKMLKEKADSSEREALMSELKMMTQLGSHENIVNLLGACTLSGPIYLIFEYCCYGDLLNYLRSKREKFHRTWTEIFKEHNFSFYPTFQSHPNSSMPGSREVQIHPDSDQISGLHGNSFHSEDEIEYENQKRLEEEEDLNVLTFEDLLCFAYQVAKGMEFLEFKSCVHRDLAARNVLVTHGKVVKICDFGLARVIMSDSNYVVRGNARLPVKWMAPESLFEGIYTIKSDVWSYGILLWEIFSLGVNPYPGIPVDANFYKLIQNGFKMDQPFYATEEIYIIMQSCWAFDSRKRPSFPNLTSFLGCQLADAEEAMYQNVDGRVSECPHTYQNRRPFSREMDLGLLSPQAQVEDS

The next assay concerns the target T3, PIM3 (Homo sapiens, UniProt Q86V86).
T3 construct: purchased DiscoverX

The next assay deals with T4, PIM1 (Homo sapiens, UniProt P11309).
T4 construct: purchased DiscoverX

For a further assay, the target named is T5, KIT(V559D,V654A) (Homo sapiens, UniProt P10721, V559D/V654A).
T5 construct: purchased DiscoverX

Another assay has as its target T6, KIT(L576P) (Homo sapiens, UniProt P10721, L576P).
T6 construct: purchased DiscoverX

A further assay has as its target T7, EGFR(G719C) (Homo sapiens, UniProt P00533, G719C).
T7 construct: purchased DiscoverX

Another assay has as its target T8, TAOK3 (Homo sapiens, UniProt Q9H2K8).
T8 construct: purchased DiscoverX
T8 sequence (Q9H2K8 1-898): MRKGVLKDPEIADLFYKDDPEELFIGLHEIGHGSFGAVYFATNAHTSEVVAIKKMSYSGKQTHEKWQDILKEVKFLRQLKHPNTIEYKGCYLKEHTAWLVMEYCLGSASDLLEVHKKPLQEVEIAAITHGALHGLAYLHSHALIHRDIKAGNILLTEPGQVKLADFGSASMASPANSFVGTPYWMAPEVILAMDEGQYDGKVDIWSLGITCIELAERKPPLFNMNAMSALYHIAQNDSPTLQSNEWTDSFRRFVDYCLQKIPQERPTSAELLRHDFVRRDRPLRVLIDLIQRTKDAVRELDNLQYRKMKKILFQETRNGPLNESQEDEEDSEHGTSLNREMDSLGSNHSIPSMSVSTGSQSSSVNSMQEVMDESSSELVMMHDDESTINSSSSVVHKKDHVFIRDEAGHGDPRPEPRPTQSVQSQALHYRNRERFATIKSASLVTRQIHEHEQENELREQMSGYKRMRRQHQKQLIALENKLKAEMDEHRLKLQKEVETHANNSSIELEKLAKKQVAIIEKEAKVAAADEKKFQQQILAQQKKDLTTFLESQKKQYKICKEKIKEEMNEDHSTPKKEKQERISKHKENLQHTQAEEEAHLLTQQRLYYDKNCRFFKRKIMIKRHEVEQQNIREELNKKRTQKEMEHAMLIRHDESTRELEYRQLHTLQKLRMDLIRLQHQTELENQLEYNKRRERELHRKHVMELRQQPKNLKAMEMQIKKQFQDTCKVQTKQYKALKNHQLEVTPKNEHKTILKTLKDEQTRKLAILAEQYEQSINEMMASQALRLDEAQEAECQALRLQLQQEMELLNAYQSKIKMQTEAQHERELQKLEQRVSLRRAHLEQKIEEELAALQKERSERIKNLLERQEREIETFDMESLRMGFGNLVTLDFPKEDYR

The target of a further assay is T9, FLT3-autoinhibited (Homo sapiens, UniProt P36888).
T9 construct: purchased DiscoverX
T9 sequence (P36888 564-993 limits assumed): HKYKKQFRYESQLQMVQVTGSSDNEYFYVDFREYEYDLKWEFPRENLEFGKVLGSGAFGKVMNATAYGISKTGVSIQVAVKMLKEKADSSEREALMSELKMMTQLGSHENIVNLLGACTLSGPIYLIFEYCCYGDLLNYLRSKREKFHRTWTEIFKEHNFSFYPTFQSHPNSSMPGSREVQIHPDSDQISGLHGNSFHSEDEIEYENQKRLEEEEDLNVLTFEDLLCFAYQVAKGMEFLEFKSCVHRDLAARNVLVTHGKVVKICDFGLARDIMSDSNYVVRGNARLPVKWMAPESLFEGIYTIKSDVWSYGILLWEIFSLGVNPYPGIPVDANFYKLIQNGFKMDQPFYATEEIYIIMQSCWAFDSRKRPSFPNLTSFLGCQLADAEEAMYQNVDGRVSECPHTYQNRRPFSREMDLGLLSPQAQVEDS

T4 sequence (P11309 whole entry): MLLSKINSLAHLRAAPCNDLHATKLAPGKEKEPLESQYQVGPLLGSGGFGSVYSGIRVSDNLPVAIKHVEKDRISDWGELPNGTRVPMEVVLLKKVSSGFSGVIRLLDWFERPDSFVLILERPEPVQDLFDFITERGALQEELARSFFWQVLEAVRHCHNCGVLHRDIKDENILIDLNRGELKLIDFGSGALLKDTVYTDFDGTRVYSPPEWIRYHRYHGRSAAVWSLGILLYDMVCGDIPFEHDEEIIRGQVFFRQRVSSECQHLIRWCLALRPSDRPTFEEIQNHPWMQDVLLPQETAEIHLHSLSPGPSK
T6 sequence (P10721 26-976 L576P): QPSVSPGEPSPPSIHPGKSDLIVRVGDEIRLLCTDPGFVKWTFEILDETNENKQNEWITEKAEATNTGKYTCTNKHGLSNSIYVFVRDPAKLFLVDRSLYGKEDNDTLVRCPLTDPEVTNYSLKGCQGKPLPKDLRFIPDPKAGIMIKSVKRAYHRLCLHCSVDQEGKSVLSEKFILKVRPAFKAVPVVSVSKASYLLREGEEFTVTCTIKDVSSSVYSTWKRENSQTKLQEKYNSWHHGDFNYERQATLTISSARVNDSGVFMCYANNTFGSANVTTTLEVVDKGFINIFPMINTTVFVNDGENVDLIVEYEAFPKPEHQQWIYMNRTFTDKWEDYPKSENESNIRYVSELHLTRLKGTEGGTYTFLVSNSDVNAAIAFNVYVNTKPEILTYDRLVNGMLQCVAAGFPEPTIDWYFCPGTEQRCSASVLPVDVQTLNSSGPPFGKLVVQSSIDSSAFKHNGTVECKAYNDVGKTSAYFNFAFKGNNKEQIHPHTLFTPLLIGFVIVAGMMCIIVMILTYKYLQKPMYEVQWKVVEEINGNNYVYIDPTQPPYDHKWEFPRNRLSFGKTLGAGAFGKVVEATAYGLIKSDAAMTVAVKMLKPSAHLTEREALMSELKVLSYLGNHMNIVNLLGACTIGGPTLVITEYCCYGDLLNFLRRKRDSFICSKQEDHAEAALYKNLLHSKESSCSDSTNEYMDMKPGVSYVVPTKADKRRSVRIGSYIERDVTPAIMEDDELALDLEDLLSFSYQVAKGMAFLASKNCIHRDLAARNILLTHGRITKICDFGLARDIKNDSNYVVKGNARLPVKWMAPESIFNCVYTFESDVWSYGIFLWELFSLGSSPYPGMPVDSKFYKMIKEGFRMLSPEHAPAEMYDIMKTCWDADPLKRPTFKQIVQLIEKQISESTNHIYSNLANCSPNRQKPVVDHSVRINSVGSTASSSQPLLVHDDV
T1 sequence (Q9UBF8 whole entry): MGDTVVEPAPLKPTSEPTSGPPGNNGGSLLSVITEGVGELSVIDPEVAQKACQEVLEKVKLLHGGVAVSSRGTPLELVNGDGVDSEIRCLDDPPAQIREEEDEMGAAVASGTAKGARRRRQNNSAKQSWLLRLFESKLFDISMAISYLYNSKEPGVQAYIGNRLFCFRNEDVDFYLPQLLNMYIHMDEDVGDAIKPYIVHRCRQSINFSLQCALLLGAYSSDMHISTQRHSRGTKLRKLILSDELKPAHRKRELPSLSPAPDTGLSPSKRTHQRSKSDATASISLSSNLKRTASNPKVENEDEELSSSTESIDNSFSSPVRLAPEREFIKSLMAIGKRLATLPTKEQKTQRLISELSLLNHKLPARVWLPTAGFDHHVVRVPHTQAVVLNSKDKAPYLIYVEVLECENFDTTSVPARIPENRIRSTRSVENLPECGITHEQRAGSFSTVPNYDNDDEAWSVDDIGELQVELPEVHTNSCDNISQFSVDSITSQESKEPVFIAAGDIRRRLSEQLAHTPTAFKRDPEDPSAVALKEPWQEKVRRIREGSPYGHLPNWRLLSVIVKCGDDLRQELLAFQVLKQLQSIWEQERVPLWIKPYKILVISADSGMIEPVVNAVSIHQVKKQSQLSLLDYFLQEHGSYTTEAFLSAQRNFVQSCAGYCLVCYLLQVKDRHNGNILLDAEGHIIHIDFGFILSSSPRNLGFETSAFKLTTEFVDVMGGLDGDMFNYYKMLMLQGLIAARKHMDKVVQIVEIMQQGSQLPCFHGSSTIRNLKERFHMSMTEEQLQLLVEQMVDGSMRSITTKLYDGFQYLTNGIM
T7 sequence (P00533 25-1210 G719C): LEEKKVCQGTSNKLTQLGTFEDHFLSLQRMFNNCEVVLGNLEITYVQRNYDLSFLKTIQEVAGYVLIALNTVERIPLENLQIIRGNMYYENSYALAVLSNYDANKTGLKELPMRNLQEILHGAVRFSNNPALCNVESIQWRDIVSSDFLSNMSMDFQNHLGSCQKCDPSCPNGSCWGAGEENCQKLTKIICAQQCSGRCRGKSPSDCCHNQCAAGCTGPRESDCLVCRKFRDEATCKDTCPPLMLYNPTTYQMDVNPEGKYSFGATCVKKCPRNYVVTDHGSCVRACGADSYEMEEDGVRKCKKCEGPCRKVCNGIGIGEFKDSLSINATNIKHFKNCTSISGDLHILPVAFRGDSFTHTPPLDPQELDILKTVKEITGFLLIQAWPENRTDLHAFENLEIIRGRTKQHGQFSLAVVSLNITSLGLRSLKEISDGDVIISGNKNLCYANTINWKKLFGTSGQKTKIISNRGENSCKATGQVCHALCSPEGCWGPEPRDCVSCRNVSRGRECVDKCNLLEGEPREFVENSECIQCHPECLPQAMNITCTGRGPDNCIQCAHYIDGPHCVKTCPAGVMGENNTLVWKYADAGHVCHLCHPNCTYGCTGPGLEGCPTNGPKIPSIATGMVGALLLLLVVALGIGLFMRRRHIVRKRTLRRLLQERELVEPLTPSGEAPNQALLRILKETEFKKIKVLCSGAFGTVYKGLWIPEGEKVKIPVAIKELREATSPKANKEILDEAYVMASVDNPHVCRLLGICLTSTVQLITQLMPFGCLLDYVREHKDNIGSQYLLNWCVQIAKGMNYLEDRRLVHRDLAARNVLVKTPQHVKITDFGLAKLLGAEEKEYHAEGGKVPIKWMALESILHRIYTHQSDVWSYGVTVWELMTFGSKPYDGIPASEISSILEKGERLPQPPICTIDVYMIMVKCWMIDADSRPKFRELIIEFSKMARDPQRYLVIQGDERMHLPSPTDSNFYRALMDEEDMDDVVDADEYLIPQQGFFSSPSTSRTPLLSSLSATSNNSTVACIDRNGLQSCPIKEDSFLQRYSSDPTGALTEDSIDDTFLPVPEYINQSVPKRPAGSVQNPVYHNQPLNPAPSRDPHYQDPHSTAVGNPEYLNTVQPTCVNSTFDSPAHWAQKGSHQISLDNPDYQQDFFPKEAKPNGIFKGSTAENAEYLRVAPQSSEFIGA
T5 sequence (P10721 26-976 V559D/V654A): as the sequence (P10721 26-976 L576P) above, with V534D, P551L, V629A counted along it

In the case of `COc1ccc2c(c1)[nH]c1c(C)nccc12` [Harmine, reference compound], the remaining binding at 10 µM came to 12% at PIK4CB, 25% on FLT3(D835V), 43% on PIM3 and 45% on PIM1.
For `COc1ccc2c(c1)[nH]c1c(C)nc(CO)cc12` [Compound 2-8, (1-Methyl-7-methoxy-9H-pyrido[3,4-b]indol-3-yl)methanol], the remaining binding at 10 µM at FLT3(D835V) (FLT3(D835V) mutant, 10 μM) was 42%; at PIM3 (PIM3, 10 μM), 15%; at KIT(V559D,V654A) (KIT(V559D,V654A) mutant, 10 μM), 100%; on KIT(L576P) (KIT(L576P) mutant, 10 μM) it was 94%; on EGFR(G719C) (EGFR(G719C) mutant, 10 μM), 98%; at TAOK3 (TAOK3, 10 μM), 70%. For the same molecule, at FLT3-autoinhibited (FLT3-autoinhibited, 10 μM), the remaining binding at 10 µM was determined as 100%.
On to `COc1ccc2c3ccnc(C)c3n(CCCc3noc(N)n3)c2c1` [Compound 20-13, 3-(3-(7-Methoxy-1-methyl-β-carbolin-9-yl)propyl)-5-amino-1,2,4-oxadiazole], for which the remaining binding at 10 µM was found to be 9.9% at PIK4CB; 2.6% on FLT3(D835V); 39% at PIM3; 28% at PIM1; 98% at KIT(V559D,V654A); 100% on KIT(L576P). Also, the remaining binding at 10 µM was found to be 93% at EGFR(G719C), 77% at TAOK3 and 85% on FLT3-autoinhibited.
With `C#CCn1c2cc(OC)ccc2c2ccnc(C)c21` [Compound 20-23a, 3-(7-Methoxy-1-methyl-β-carbolin-9-yl)-propan-1-yne], the remaining binding at 10 µM was determined as 0% at PIK4CB (PIK4CB, 10 μM); 2.5% on FLT3(D835V) (FLT3(D835V) mutant, 10 μM); 32% on PIM3 (PIM3, 10 μM); 26% at PIM1 (PIM1, 10 μM); 100% at KIT(V559D,V654A); 74% on KIT(L576P). In addition, the remaining binding at 10 µM on EGFR(G719C) is 92%; on TAOK3, 93%; on FLT3-autoinhibited it was 100%.
